Experimental data taken from patent publication US12109197B2, “Combinations of β-lactam compounds and probenecid and uses thereof” (Iterum Therapeutics International Limited, priority 2018, dated 2024).
Like-named read-outs stand apart in the source and are kept apart here. One block for each compound: values may come before it.

Assays:
[1] = Description: Subjects were to be dosed twice a day (every 12 hours) for 6 days and on Day 7 they were to be dosed once. All treatment groups could be run in parallel or sequentially. Subjects were allocated based on the randomization list. Randomization numbers were assigned sequentially as subjects entered into groups on the basis of their order of entry into the study. Subjects who withdrew for reasons unrelated to safety may have been replaced. Blood samples were obtained at prespecified intervals in order to characterize pharmacokinetics.
[2] = Dacey and Sande 1974; cited from earlier work
[3] = Multiple-dose study of sulopenem delivered intravenously: plasma pharmacokinetics; type: in vivo, human; conditions: for AUC(0-inf) / AUC(0-t) / Cmax / half-life / Tmax / CL renal: human, plasma, iv; for Tmax: median [range]; for Rac: accumulation ratio
Description: The pharmacokinetics of sulopenem delivered intravenously were studied in a randomized, investigator-blind, subject-blind, sponsor-open, placebo-controlled, multiple-dose study of sulopenem. There were 5 cohorts dosed. Each subject was dosed for up to 14 days. Each cohort consisted of 10 subjects.

[4] = test system: Porphyromonas gingivalis; conditions: Ednie and Appelbaum 2009; cited from earlier work
[5] = 800 mg, intravenous 800 mg (3 h BID), Day 1
[6] = 800 mg, intravenous 800 mg (3 h BID), Day 14
[7] = 1200 mg, intravenous 1200 mg (1 h BID), Day 1
[8] = 1200 mg, intravenous 1200 mg (1 h BID), Day 14
[9] = 1200 mg, intravenous 1200 mg ([…] BID), Day 1
[10] = 1200 mg, intravenous 1200 mg ([…] BID), Day 14
[11] = 1600 mg, intravenous 1600 mg (1.5 h BID), Day 1
[12] = 1600 mg, intravenous 1600 mg (1.5 h BID), Day 14
[13] = 2000 mg, intravenous 2000 mg (1.5 h BID), Day 1

AUC of sulopenem on Day 7 compared with Day 1 ([1]; administered alone through the oral route): lower than that on Day 1
SMILES: CCOC(C)(C)C(=O)OCOC(=O)C1=C(S[C@H]2CC[S@@+]([O-])C2)S[C@@H]2[C@@H]([C@@H](C)O)C(=O)N12 [Compound III-1b]
AUC of sulopenem on Day 7 compared with Day 1 ([1]; co-administered with probenecid): increased on Day 7 beyond that seen on Day 1

SMILES: CCCN(CCC)S(=O)(=O)c1ccc(C(=O)O)cc1 [probenecid]
effect on concentrations of β-lactam compounds in the cerebrospinal fluid [2]: increase the concentrations of β-lactam compounds in the cerebrospinal fluid

AUC(0-inf) [3, 5]: 22400 ng·h/mL
AUC(0-t) [3, 5]: 22300 ng·h/mL
Cmax [3, 5]: 7270 ng/mL
half-life [3, 5]: 0.825 h
Tmax [3, 5]: 2 h
AUC(0-inf) [3, 6]: 26500 ng·h/mL
AUC(0-t) [3, 6]: 26400 ng·h/mL
CL renal [3, 6]: 257 mL/min
Cmax [3, 6]: 8970 ng/mL
half-life [3, 6]: 0.889 h
Tmax [3, 6]: 2 h
AUC(0-inf) [3, 7]: 42300 ng·h/mL
AUC(0-t) [3, 7]: 42200 ng·h/mL
Cmax [3, 7]: 32500 ng/mL
half-life [3, 7]: 1.04 h
Tmax [3, 7]: 1 h
AUC(0-inf) [3, 8]: 41400 ng·h/mL
AUC(0-t) [3, 8]: 41300 ng·h/mL
CL renal [3, 8]: 245 mL/min
Cmax [3, 8]: 30700 ng/mL
half-life [3, 8]: 1.05 h
Tmax [3, 8]: 1 h
AUC(0-inf) [3, 9]: 41900 ng·h/mL
AUC(0-t) [3, 9]: 41800 ng·h/mL
Cmax [3, 9]: 16600 ng/mL
half-life [3, 9]: 1.12 h
Tmax [3, 9]: 2.25 h
AUC(0-inf) [3, 10]: 34600 ng·h/mL
AUC(0-t) [3, 10]: 34500 ng·h/mL
CL renal [3, 10]: 313 mL/min
Cmax [3, 10]: 13500 ng/mL
half-life [3, 10]: 1.01 h
Tmax [3, 10]: 2 h
AUC(0-inf) [3, 11]: 67300 ng·h/mL
AUC(0-t) [3, 11]: 67100 ng·h/mL
Cmax [3, 11]: 40100 ng/mL
half-life [3, 11]: 1.04 h
Tmax [3, 11]: 1.5 h
AUC(0-inf) [3, 12]: 54900 ng·h/mL
AUC(0-t) [3, 12]: 54700 ng·h/mL
CL renal [3, 12]: 327 mL/min
Cmax [3, 12]: 31800 ng/mL
half-life [3, 12]: 1.2 h
Tmax [3, 12]: 1.25 h
AUC(0-inf) [3, 13]: 90300 ng·h/mL
AUC(0-t) [3, 13]: 90100 ng·h/mL
Cmax [3, 13]: 51500 ng/mL
half-life [3, 13]: 1.12 h
Tmax [3, 13]: 1.5 h
Rac ([3]; intravenous 800 mg (3 h BID), Day 14): 1.15 (29)
Rac ([3]; intravenous 1200 mg (1 h BID), Day 14): 0.928 (17)
Rac ([3]; intravenous 1200 mg ([…] BID), Day 14): 0.841 (9)
Rac ([3]; intravenous 1600 mg (1.5 h BID), Day 14): 0.791 (9)
SMILES: C[C@@H](O)[C@H]1C(=O)N2C(C(=O)O)=C(S[C@H]3CC[S@@+]([O-])C3)S[C@H]12 [sulopenem]
activity against Porphyromonas gingivalis [4]: active
